BindingDB's records for doi:10.1021/jm00002a012 (Merck Research Laboratories, 1995)

Target: Human immunodeficiency virus type 1 protease (Human immunodeficiency virus 1, UniProt Q72874)
Experiment: Inhibition of HIV-1 protease was determined in vitro

CC(C)(C)NC(=O)[C@@H]1C[C@@H]2CCCC[C@@H]2CN1C[C@@H](O)[C@H](Cc1ccccc1)NC(=O)[C@@H](NC(=O)c1ccc2ccccc2n1)[C@H]1CCOC1 [(3S,4aS,8aS)-N-tert-butyl-2-[(2R,3S)-2-hydroxy-3-[(2S)-2-[(3R)-oxolan-3-yl]-2-(quinolin-2-ylformamido)acetamido]-4-phenylbutyl]-decahydroisoquinoline-3-carboxamide]
IC50: 0.05 nM
